Source: article PMC11555231 (Nature Communications, 2024)
Bridge positions count the residues as written; N and C are the ends. Square brackets hold non-standard residues; d marks the D form. Peptide text beside a SMILES is read from it.

Test system: human neutrophils
Assay: Cholesterol crystal stimulation and NET preparation, immunoblot of citrullinated histone H3
Assay type: cell-based
Conditions: 50 µM peptide pre-incubated 1 h, 1 mg/ml cholesterol crystals
Description: Peripheral venous blood was isolated from consenting healthy adult volunteers in heparin tubes as previously described. Briefly, blood samples were on Histopaque 1119 (Sigma-Aldrich) and then centrifuged for 20 min at 800 × g. The plasma was collected and centrifuged for a second time for 20 min at 800 × g. The neutrophil layer was collected and washed in Hyclone Hank’s Balanced Salt Solution (HBSS) -Ca, -Mg, -Phenol red (GE Healthcare) supplemented with 10 mM HEPES (Invitrogen) 0.1% FBS and further purified with a discontinuous Percoll (GE Healthcare) gradient consisting of layers with densities of 85, 80, 75, 70 and 65% and centrifuged for 20 min at 800 × g. Neutrophil-enriched layers were then collected and washed, and neutrophil purity was assessed using flow cytometry.
About 1 × 10^6 human blood neutrophils were isolated as described in the “Human neutrophils from peripheral blood healthy donors” section. Neutrophils were seeded in 6 well plates in HBSS +Ca, +Mg, -Phenol red (GE Healthcare) containing 10 mM HEPES (Invitrogen), left to settle for 30 min, then pre-incubated with either 50 μM PADI4_3, PADI4_3i or DMSO (0.5%) for 1 h. […] NET DNA concentration was determined by Quant-iT Picogreen dsDNA reagent as per the manufacturer’s instructions (Thermo Fisher Scientific). […]

SMILES: N=C(N)NCCC[C@@H]1NC(=O)[C@H](CC(=O)O)NC(=O)[C@@H](Cc2ccc(O)cc2)NC(=O)CSC[C@@H](C(=O)NCC(N)=O)NC(=O)[C@H](Cc2ccc(O)cc2)NC(=O)[C@H](CCCCN)NC(=O)[C@@H]2CCCN2C(=O)[C@H](Cc2c[nH]cn2)NC(=O)[C@H](CCCNC(=N)N)NC(=O)[C@H](Cc2ccc(O)cc2)NC(=O)[C@H](Cc2c[nH]cn2)NC(=O)[C@H](Cc2c[nH]cn2)NC1=O [PADI4_3i] ({CH2CO}-[dY]DRHHYRHPKYCG-NH2; thioether N-12)
- citrullination of histone 3 in NET preparations: abolished by PADI4_3 but not PADI4_3i
